Results: patent US20130004651A1, “SUSTAINED DRUG RELEASE FROM BODY IMPLANTS USING NANOPARTICLE-EMBEDDED POLYMERIC COATING MATERIALS” (priority 2011, published 2013)

Assay: Sustained release study (fluorescence intensity vs. time)
Type: physicochemical
Procedure: Step 3: Sustained Release Study
FIGS. 6a and 6b show the sustained release of chloramphenicol (at 1 and 4 molar concentrations, respectively) from the liposomes described above as a function of fluorescence intensity vs. time at a release rate of about 0.65 mg/day.

release rate (sustained release from liposomes, 1 and 4 molar concentrations (FIGS. 6a, 6b)) | release rate (sustained release from reverse micelles (FIG. 6c)) | Molecule
about 0.65 mg/day |  | O=C(N[C@H](CO)[C@H](O)c1ccc([N+](=O)[O-])cc1)C(Cl)Cl [chloramphenicol]
 | about 113 mg/day | vitamin E
